Patent US7087642B2 (priority 1999, dated 2006)

test system: human PBMC B cells; experiment: cells; assay type: cell-based; conditions: Homo sapiens, 72 h, read-out: B-cells (IC50)

SMILES	IC50
CCN(CC(C)C)CC(OC(=O)NCc1cccc(NC(=O)Nc2ccc(-c3cnco3)c(OC)c2)c1)c1ccccc1 (stereo not drawn) [Compound 115]	> 1000 nM
COc1cc(NC(=O)Nc2cccc(CNC(=O)OC(CN(CC(C)C)CC(C)C)c3ccccc3)c2)ccc1-c1cnco1 (stereo not drawn) [Compound 116]	> 1000 nM
COc1cc(NC(=O)Nc2cccc(CNC(=O)OC(CN(CC(C)C)CC3CC3)c3ccccc3)c2)ccc1-c1cnco1 (stereo not drawn) [Compound 117]	> 1000 nM
CCCN(C)CCC(OC(=O)NCc1cccc(NC(=O)Nc2ccc(-c3cnco3)c(OC)c2)c1)c1ccccc1 (stereo not drawn) [Compound 118]	100 to 1000 nM
CCCN(CC)CCC(OC(=O)NCc1cccc(NC(=O)Nc2ccc(-c3cnco3)c(OC)c2)c1)c1ccccc1 (stereo not drawn) [Compound 119]	100 to 1000 nM
CCCN(CCC(OC(=O)NCc1cccc(NC(=O)Nc2ccc(-c3cnco3)c(OC)c2)c1)c1ccccc1)CC(C)C (stereo not drawn) [Compound 120]	> 1000 nM
CCCN(CCC(OC(=O)NCc1cccc(NC(=O)Nc2ccc(-c3cnco3)c(OC)c2)c1)c1ccccc1)CC1CC1 (stereo not drawn) [Compound 122]	> 1000 nM
CCCN(CCC)CCC(OC(=O)NCc1cccc(NC(=O)Nc2ccc(-c3cnco3)c(OC)c2)c1)c1ccccc1 (stereo not drawn) [Compound 123]	> 1000 nM
CCN(CCC(OC(=O)NCc1cccc(NC(=O)Nc2ccc(-c3cnco3)c(OC)c2)c1)c1ccccc1)CC(C)C (stereo not drawn) [Compound 125]	100 to 1000 nM
COc1cc(NC(=O)Nc2cccc(CNC(=O)OC(CCN(CC(C)C)CC(C)C)c3ccccc3)c2)ccc1-c1cnco1 (stereo not drawn) [Compound 126]	> 1000 nM
COc1cc(NC(=O)Nc2cccc(CNC(=O)OC(CCN(CC(C)C)CC3CC3)c3ccccc3)c2)ccc1-c1cnco1 (stereo not drawn) [Compound 127]	> 1000 nM
COc1cc(NC(=O)Nc2cccc(CNC(=O)OC(CCN(C)C(C)C)c3ccccc3)c2)ccc1-c1cnco1 (stereo not drawn) [Compound 128]	100 to 1000 nM
CCN(CCC(OC(=O)NCc1cccc(NC(=O)Nc2ccc(-c3cnco3)c(OC)c2)c1)c1ccccc1)C(C)C (stereo not drawn) [Compound 129]	100 to 1000 nM
COc1cc(NC(=O)Nc2cccc(CNC(=O)OC(CCN(CC(C)C)C(C)C)c3ccccc3)c2)ccc1-c1cnco1 (stereo not drawn) [Compound 130]	> 1000 nM
COc1cc(NC(=O)Nc2cccc(CNC(=O)OC(CCN(CC3CC3)C(C)C)c3ccccc3)c2)ccc1-c1cnco1 (stereo not drawn) [Compound 131]	100 to 1000 nM

test system: human PBMC T cells; experiment: cells; assay type: cell-based; conditions: Homo sapiens, 72 h, read-out: T-cells (IC50)

SMILES	IC50
CCN(CC(C)C)CC(OC(=O)NCc1cccc(NC(=O)Nc2ccc(-c3cnco3)c(OC)c2)c1)c1ccccc1 (stereo not drawn) [Compound 115]	> 1000 nM
COc1cc(NC(=O)Nc2cccc(CNC(=O)OC(CN(CC(C)C)CC(C)C)c3ccccc3)c2)ccc1-c1cnco1 (stereo not drawn) [Compound 116]	> 1000 nM
COc1cc(NC(=O)Nc2cccc(CNC(=O)OC(CN(CC(C)C)CC3CC3)c3ccccc3)c2)ccc1-c1cnco1 (stereo not drawn) [Compound 117]	> 1000 nM
CCCN(C)CCC(OC(=O)NCc1cccc(NC(=O)Nc2ccc(-c3cnco3)c(OC)c2)c1)c1ccccc1 (stereo not drawn) [Compound 118]	100 to 1000 nM
CCCN(CC)CCC(OC(=O)NCc1cccc(NC(=O)Nc2ccc(-c3cnco3)c(OC)c2)c1)c1ccccc1 (stereo not drawn) [Compound 119]	100 to 1000 nM
CCCN(CCC(OC(=O)NCc1cccc(NC(=O)Nc2ccc(-c3cnco3)c(OC)c2)c1)c1ccccc1)CC(C)C (stereo not drawn) [Compound 120]	> 1000 nM
CCCN(CCC(OC(=O)NCc1cccc(NC(=O)Nc2ccc(-c3cnco3)c(OC)c2)c1)c1ccccc1)CC1CC1 (stereo not drawn) [Compound 122]	> 1000 nM
CCCN(CCC)CCC(OC(=O)NCc1cccc(NC(=O)Nc2ccc(-c3cnco3)c(OC)c2)c1)c1ccccc1 (stereo not drawn) [Compound 123]	> 1000 nM
CCN(CCC(OC(=O)NCc1cccc(NC(=O)Nc2ccc(-c3cnco3)c(OC)c2)c1)c1ccccc1)CC(C)C (stereo not drawn) [Compound 125]	100 to 1000 nM
COc1cc(NC(=O)Nc2cccc(CNC(=O)OC(CCN(CC(C)C)CC(C)C)c3ccccc3)c2)ccc1-c1cnco1 (stereo not drawn) [Compound 126]	> 1000 nM
COc1cc(NC(=O)Nc2cccc(CNC(=O)OC(CCN(CC(C)C)CC3CC3)c3ccccc3)c2)ccc1-c1cnco1 (stereo not drawn) [Compound 127]	> 1000 nM
COc1cc(NC(=O)Nc2cccc(CNC(=O)OC(CCN(C)C(C)C)c3ccccc3)c2)ccc1-c1cnco1 (stereo not drawn) [Compound 128]	100 to 1000 nM
CCN(CCC(OC(=O)NCc1cccc(NC(=O)Nc2ccc(-c3cnco3)c(OC)c2)c1)c1ccccc1)C(C)C (stereo not drawn) [Compound 129]	100 to 1000 nM
COc1cc(NC(=O)Nc2cccc(CNC(=O)OC(CCN(CC(C)C)C(C)C)c3ccccc3)c2)ccc1-c1cnco1 (stereo not drawn) [Compound 130]	100 to 1000 nM
COc1cc(NC(=O)Nc2cccc(CNC(=O)OC(CCN(CC3CC3)C(C)C)c3ccccc3)c2)ccc1-c1cnco1 (stereo not drawn) [Compound 131]	100 to 1000 nM

target: IMPDH human type II (Homo sapiens, UniProt P12268); experiment: biochemical; conditions: read-out: Ki

SMILES	Ki
CCN(CC(C)C)CC(OC(=O)NCc1cccc(NC(=O)Nc2ccc(-c3cnco3)c(OC)c2)c1)c1ccccc1 (stereo not drawn) [Compound 115]	> 50 nM
COc1cc(NC(=O)Nc2cccc(CNC(=O)OC(CN(CC(C)C)CC(C)C)c3ccccc3)c2)ccc1-c1cnco1 (stereo not drawn) [Compound 116]	> 50 nM
COc1cc(NC(=O)Nc2cccc(CNC(=O)OC(CN(CC(C)C)CC3CC3)c3ccccc3)c2)ccc1-c1cnco1 (stereo not drawn) [Compound 117]	> 50 nM
CCCN(C)CCC(OC(=O)NCc1cccc(NC(=O)Nc2ccc(-c3cnco3)c(OC)c2)c1)c1ccccc1 (stereo not drawn) [Compound 118]	> 50 nM
CCCN(CC)CCC(OC(=O)NCc1cccc(NC(=O)Nc2ccc(-c3cnco3)c(OC)c2)c1)c1ccccc1 (stereo not drawn) [Compound 119]	> 50 nM
CCCN(CCC(OC(=O)NCc1cccc(NC(=O)Nc2ccc(-c3cnco3)c(OC)c2)c1)c1ccccc1)CC(C)C (stereo not drawn) [Compound 120]	> 50 nM
CCCN(CCC(OC(=O)NCc1cccc(NC(=O)Nc2ccc(-c3cnco3)c(OC)c2)c1)c1ccccc1)CC1CC1 (stereo not drawn) [Compound 122]	> 50 nM
CCCN(CCC)CCC(OC(=O)NCc1cccc(NC(=O)Nc2ccc(-c3cnco3)c(OC)c2)c1)c1ccccc1 (stereo not drawn) [Compound 123]	> 50 nM
CCN(CCC(OC(=O)NCc1cccc(NC(=O)Nc2ccc(-c3cnco3)c(OC)c2)c1)c1ccccc1)CC(C)C (stereo not drawn) [Compound 125]	> 50 nM
COc1cc(NC(=O)Nc2cccc(CNC(=O)OC(CCN(CC(C)C)CC(C)C)c3ccccc3)c2)ccc1-c1cnco1 (stereo not drawn) [Compound 126]	> 50 nM
COc1cc(NC(=O)Nc2cccc(CNC(=O)OC(CCN(CC(C)C)CC3CC3)c3ccccc3)c2)ccc1-c1cnco1 (stereo not drawn) [Compound 127]	> 50 nM
COc1cc(NC(=O)Nc2cccc(CNC(=O)OC(CCN(C)C(C)C)c3ccccc3)c2)ccc1-c1cnco1 (stereo not drawn) [Compound 128]	> 50 nM
CCN(CCC(OC(=O)NCc1cccc(NC(=O)Nc2ccc(-c3cnco3)c(OC)c2)c1)c1ccccc1)C(C)C (stereo not drawn) [Compound 129]	> 50 nM
COc1cc(NC(=O)Nc2cccc(CNC(=O)OC(CCN(CC(C)C)C(C)C)c3ccccc3)c2)ccc1-c1cnco1 (stereo not drawn) [Compound 130]	> 50 nM
COc1cc(NC(=O)Nc2cccc(CNC(=O)OC(CCN(CC3CC3)C(C)C)c3ccccc3)c2)ccc1-c1cnco1 (stereo not drawn) [Compound 131]	> 50 nM
